Measured values from US20260015359A1, “2-(1,8-DIETHYL-1,3,4,9-TETRAHYDROPYRANO[3,4-B]INDOL-1-YL)-1-(PIPERIDIN-1-YL)ETHAN-1-ONE ETODOLAC DERIVATIVE AS EUKARYOTIC ELONGATION FACTOR 2 KINASE (EEF2K) INHIBITOR FOR TARGETED CANCER THERAPY” (BAHCESEHIR UNIVERSITESI, priority 2023, published 2026).

Experiments:
eEF2K [1] = target: T1, eEF2K (Homo sapiens, UniProt O00418); experiment: Western blot analysis of eEF2K activity (p-EF2 Thr56) in MDA-MB-231 cells; format: cell-based; conditions: for eEF2K inhibition potential: western blot, 2.5 to 20 micromolar
T1 sequence (O00418 1-725): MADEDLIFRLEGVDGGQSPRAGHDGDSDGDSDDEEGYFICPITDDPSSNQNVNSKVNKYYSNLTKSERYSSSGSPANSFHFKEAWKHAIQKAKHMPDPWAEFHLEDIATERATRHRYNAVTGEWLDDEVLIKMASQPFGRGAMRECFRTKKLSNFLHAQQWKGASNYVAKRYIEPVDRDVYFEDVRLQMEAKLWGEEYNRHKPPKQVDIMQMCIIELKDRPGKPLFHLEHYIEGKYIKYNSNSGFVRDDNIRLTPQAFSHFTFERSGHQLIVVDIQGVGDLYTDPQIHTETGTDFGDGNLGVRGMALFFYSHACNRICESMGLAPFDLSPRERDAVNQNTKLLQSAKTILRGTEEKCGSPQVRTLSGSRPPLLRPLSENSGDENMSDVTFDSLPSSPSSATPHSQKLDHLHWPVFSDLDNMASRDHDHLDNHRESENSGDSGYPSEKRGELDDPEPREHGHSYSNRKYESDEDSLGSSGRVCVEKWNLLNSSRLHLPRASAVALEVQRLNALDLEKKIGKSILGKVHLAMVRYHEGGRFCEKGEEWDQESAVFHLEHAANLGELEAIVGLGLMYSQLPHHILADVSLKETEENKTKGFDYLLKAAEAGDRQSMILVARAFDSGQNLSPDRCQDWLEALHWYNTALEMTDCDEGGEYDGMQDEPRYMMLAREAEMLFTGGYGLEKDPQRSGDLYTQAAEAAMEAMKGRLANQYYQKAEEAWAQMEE
Protocol: MeOH: distilled water by volume (%) (70:30) was used as the mobile phase for HPLC analysis for the inventive compound and the flow rate was set to 1 mL min^−1. Triple negative breast cancer (TNBC) cell lines (ER-, PR- and HER2-) MDA-MB-231 cells were purchased from the American Type Culture Collection (ATCC) (Manassas, VA, USA). MDA-MB-231 cells were cultured in Dulbecco's modified Eagle's medium (DMEM)/F12 supplemented with 10% FBS (Fetal Bovine Serum) and 100 U mL^−1 penicillin and streptomycin. Specific antibodies (p-EF2 (Thr56) (2331S), eEF2 (2332S), eEF2K (3692S) and GAPDH (5174S)) were purchased from Cell Signaling Technology (CST).
Western blot analysis was carried out according to previously reported studies to evaluate the eEF2K inhibition activity for the synthesized compounds. The synthesized compound was applied to MDA-MB-231 cells in the range of various concentrations from 2.5 to 20 micromolar for 2 h treatment. The expression levels of p-EF2 (Thr56) inhibition and eEF2K activity were determined by using related antibodies such as p-EF2 (Thr56), eEF2 and eEF2K. Glyceraldehyde 3-phosphate dehydrogenase (GAPDH) was used as a loading control.
To determine the effects of the synthesized compounds in inhibiting eEF2K activity in TNBC, MDA-MB-231 cells, we performed western blot analysis at concentrations ranging from 2.5 micromolar to 20 micromolar in a dose-dependent manner. eEF2K inhibition was detected by decreased phosphorylation levels of EF2 (p-EF2-Thr-56), a direct downstream substrate of the enzyme.

cancer cells = conditions: literature; cited from earlier work
eEF2K [2] = target: T1, eEF2K; conditions: literature; cited from earlier work

eEF2K inhibition potential (eEF2K [1]) | Structure (SMILES) | eEF2K inhibition (reported) (eEF2K [2]) | further results
did not show any inhibition potential | CCc1cccc2c3c([nH]c12)C(CC)(CC(=O)O)OCC3 (racemic) [Etodolac, (R,S)-2-[1,8-diethyl-1,3,4-tetrahydropyrano [3,4-b]indol-1-yl]acetic acid] |  | 
 | CCn1c(=O)c2cc(C(N)=O)c(N)nc2n(C2CC2)c1=O [A484954] |  | dose showing inhibition effect in cancer cells (cancer cells): 75 µM
high inhibition potential | CCc1cccc2c3c([nH]c12)C(CC)(CC(=O)N1CCCCC1)OCC3 (centres unmarked) [Inventive compound, 2-(1,8-diethyl-1,3,4,9-tetrahydropyrano [3,4-b]indol-1-yl)-1-(piperidin-1-yl) ethan-1-one] |  | eEF2K inhibition (reduced levels of p-EF2) (eEF2K [1]; 2.5 micromolar, compared to etodolac (EC)): marked inhibition; inhibition of phospho-eEF2 (Thr56) (eEF2K [1]; 20 micromolar, 2 hours treatment): highest inhibition
 | CCCCCCCCCCCCCCCCn1cc[n+](Cc2ccccc2)c1C.[I-] [NH125] | does not inhibit EF2K | 
 | Cc1cc(C=C2C(=O)C=CC2=O)cc(C)c1O [TX1918] | did not show significant eEF2K inhibition | concentration reported to inhibit eEF2K (eEF2K [2]): 10 µM
